Patent US12655116B2, “Substituted isophthalic acid diamides” (Bayer Aktiengesellschaft, priority 2020, dated 2026)

What was measured:
ABUTH [1] = test: Pre-emergence herbicidal action against ABUTH; assay type: in vivo, Abutilon theophrasti; conditions: Abutilon theophrasti, 504 h
Method in brief: (§1)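 Herbicidal effect was assessed 3 weeks after treatment by visual comparison with untreated controls, 100% denoting dead plants. Aqueous WP or EC preparations had been applied at 600 to 800 l/ha with 0.2% wetting agent to the soil covering freshly sown seeds.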

ALOMY [2] = test: Pre-emergence herbicidal action against ALOMY; assay type: in vivo, Alopecurus myosuroides; conditions: Alopecurus myosuroides, 504 h, pre-emergence
Method in brief: as §1

AMARE [3] = test: Pre-emergence herbicidal action against AMARE; assay type: in vivo, Amaranthus retroflexus; conditions: Amaranthus retroflexus, 504 h, scored visually after 3 weeks vs untreated controls, 100% = plants have died, 0% = like control plants
Method in brief: as §1

AVEFA [4] = test: Pre-emergence herbicidal action against AVEFA; assay type: in vivo, Avena fatua; conditions: Avena fatua, 504 h, pre-emergence
Method in brief: as §1

ECHCG [5] = test: Pre-emergence herbicidal action against ECHCG; assay type: in vivo, Echinochloa crus-galli; conditions: Echinochloa crus-galli, 504 h, 80 g/ha
Method in brief: as §1

HORMU [6] = test: Pre-emergence herbicidal action against HORMU; assay type: in vivo, Hordeum murinum; conditions: Hordeum murinum, 504 h; 80 g/ha, pre-emergence
Method in brief: as §1

LOLRI = test: Pre-emergence herbicidal action against LOLRI; assay type: in vivo, Lolium rigidum; conditions: Lolium rigidum, 504 h, 80 g/ha
Method in brief: as §1

MATIN [7] = test: Pre-emergence herbicidal action against MATIN; assay type: in vivo, Matricaria inodora; conditions: Tripleurospermum inodorum, 504 h
Method in brief: as §1

POLCO = test: Pre-emergence herbicidal action against POLCO; assay type: in vivo, Polygonum convolvulus; conditions: Fallopia convolvulus, 504 h, dosage 80 g/ha
Method in brief: as §1

SETVI [8] = test: Pre-emergence herbicidal action against SETVI; assay type: in vivo, Setaria viridis; conditions: Setaria viridis, 504 h
Method in brief: as §1

STEME [9] = test: Pre-emergence herbicidal action against STEME; assay type: in vivo, Stellaria media; conditions: Stellaria media, 504 h
Method in brief: as §1

VIOTR [10] = test: Pre-emergence herbicidal action against VIOTR; assay type: in vivo, Viola tricolor; conditions: Viola tricolor, 504 h
Method in brief: as §1

DIGSA [11] = test: Pre-emergence herbicidal action against DIGSA; assay type: in vivo, Digitaria sanguinalis; conditions: Digitaria sanguinalis, 504 h
Method in brief: as §1

ABUTH [12] = test: Post-emergence herbicidal action against ABUTH; assay type: in vivo, Abutilon theophrasti; conditions: Abutilon theophrasti, 504 h, visual assessment about 3 weeks after treatment vs untreated controls
Method in brief: (§2)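 Post-emergence greenhouse test; one-leaf stage, 2–3 wk post-sowing, sandy loam. Foliar spray of WP/EC in water, 600–800 l/ha, +0.2% wetting agent. Visual % action at ~3 wk vs untreated (100% = plants dead).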

ALOMY [13] = test: Post-emergence herbicidal action against ALOMY; assay type: in vivo, Alopecurus myosuroides; conditions: Alopecurus myosuroides, 504 h, dosage 20 g/ha, visual assessment about 3 weeks after treatment vs untreated controls
Method in brief: as §2

AMARE [14] = test: Post-emergence herbicidal action against AMARE; assay type: in vivo, Amaranthus retroflexus; conditions: Amaranthus retroflexus, 504 h, 20 g/ha, visual assessment about 3 weeks after treatment, 100% = plants have died, 0% = like control plants
Method in brief: as §2

AVEFA [15] = test: Post-emergence herbicidal action against AVEFA; assay type: in vivo, Avena fatua; conditions: Avena fatua, 504 h, 20 g/ha, visual assessment about 3 weeks after treatment, 100% = plants have died, 0% = like control plants
Method in brief: as §2

ECHCG [16] = test: Post-emergence herbicidal action against ECHCG; assay type: in vivo, Echinochloa crus-galli; conditions: Echinochloa crus-galli, 504 h, dosage 20 g/ha
Method in brief: as §2

HORMU [17] = test: Post-emergence herbicidal action against HORMU; assay type: in vivo, Hordeum murinum; conditions: Hordeum murinum, 504 h, dosage 20 g/ha
Method in brief: as §2

MATIN [18] = test: Post-emergence herbicidal action against MATIN; assay type: in vivo, Matricaria inodora; conditions: Tripleurospermum inodorum, 504 h
Method in brief: as §2

PHBPU = test: Post-emergence herbicidal action against PHBPU; assay type: in vivo, Pharbitis purpurea; conditions: Ipomoea purpurea, 504 h, dosage 20 g/ha
Method in brief: as §2

SETVI [19] = test: Post-emergence herbicidal action against SETVI; assay type: in vivo, Setaria viridis; conditions: Setaria viridis, 504 h, dosage 20 g/ha
Method in brief: as §2

STEME [20] = test: Post-emergence herbicidal action against STEME; assay type: in vivo, Stellaria media; conditions: Stellaria media, 504 h
Method in brief: as §2

VERPE = test: Post-emergence herbicidal action against VERPE; assay type: in vivo, Veronica persica; conditions: Veronica persica, 504 h, 20 g/ha
Method in brief: as §2

VIOTR [21] = test: Post-emergence herbicidal action against VIOTR; assay type: in vivo, Viola tricolor; conditions: Viola tricolor, 504 h
Method in brief: as §2

DIGSA [22] = test: Post-emergence herbicidal action against DIGSA; assay type: in vivo, Digitaria sanguinalis; conditions: Digitaria sanguinalis, 504 h
Method in brief: as §2

[23] = 80 g/ha, scored visually after 3 weeks vs untreated controls (100% = plants have died, 0% = like control plants)
[24] = 20 g/ha, scored visually after 3 weeks, 100% = plants have died, 0% = like control plants

Molecule Cn1nnnc1NC(=O)c1ccc(C(F)(F)F)c(C(=O)NC2CC2)c1Cl [Example 1-131] has a pest or weed control at 80 g/ha (ABUTH [1]; [23]) of 100%, a pest or weed control at 20 g/ha (ABUTH [1]; dosage 20 g/ha, scored visually after 3 weeks vs untreated controls, 100% = plants have died, 0% = like control plants, read-out: Pre-emergence action against ABUTH (herbicidal activity in percent)) of 100% and a pest or weed control at 80 g/ha (ALOMY [2]; [23]) of 100%. It also gave a pest or weed control at 20 g/ha (ALOMY [2]; [24]) of 80%, a pest or weed control at 20 g/ha (AMARE [3]; 20 g/ha) of 100% and a pest or weed control at 80 g/ha (AMARE [3]; 80 g/ha) of 100%. The pest or weed control at 80 g/ha (AVEFA [4]; 80 g/ha) was 100%, the pest or weed control at 20 g/ha (AVEFA [4]; [24]) was 80% and the pest or weed control at 80 g/ha (ECHCG [5]) was 100%. For the same molecule, the pest or weed control at 80 g/ha (HORMU [6]) was 80%, the pest or weed control at 80 g/ha (LOLRI) was 80% and the pest or weed control at 20 g/ha (MATIN [7]; dosage 20 g/ha) was 100%. The pest or weed control at 80 g/ha (MATIN [7]; dosage 80 g/ha) was 100%, the pest or weed control at 80 g/ha (POLCO) was 80% and the pest or weed control at 20 g/ha (SETVI [8]; dosage 20 g/ha) was 80%. For the same molecule, the pest or weed control at 80 g/ha (SETVI [8]; dosage 80 g/ha) was 100%, the pest or weed control at 20 g/ha (STEME [9]; dosage 20 g/ha) was 100% and the pest or weed control at 80 g/ha (STEME [9]; dosage 80 g/ha) was 100%. For the same molecule, the pest or weed control at 20 g/ha (VIOTR [10]; dosage 20 g/ha) was 100%, the pest or weed control at 80 g/ha (VIOTR [10]; dosage 80 g/ha) was 100% and the pest or weed control at 20 g/ha (DIGSA [11]; dosage 20 g/ha) was 100%. It also gave a pest or weed control at 80 g/ha (DIGSA [11]; dosage 80 g/ha) of 100%, a pest or weed control at 5 g/ha (ABUTH [12]; dosage 5 g/ha) of 90% and a pest or weed control at 20 g/ha (ABUTH [12]; dosage 20 g/ha) of 90%. For the same molecule, the pest or weed control at 20 g/ha (ALOMY [13]) was 90%, the pest or weed control at 20 g/ha (AMARE [14]) was 100% and the pest or weed control at 20 g/ha (AVEFA [15]) was 80%. For the same molecule, the pest or weed control at 20 g/ha (ECHCG [16]) was 90%, the pest or weed control at 20 g/ha (HORMU [17]) was 80% and the pest or weed control at 5 g/ha (MATIN [18]; dosage 5 g/ha) was 90%. For the same molecule, the pest or weed control at 20 g/ha (MATIN [18]; dosage 20 g/ha) was 90%, the pest or weed control at 20 g/ha (PHBPU) was 90% and the pest or weed control at 20 g/ha (SETVI [19]) was 100%. The pest or weed control at 20 g/ha (STEME [20]; 20 g/ha) was 100%, the pest or weed control at 5 g/ha (STEME [20]; dosage 5 g/ha) was 80% and the pest or weed control at 20 g/ha (VERPE) was 90%. It also gave a pest or weed control at 5 g/ha (VIOTR [21]; 5 g/ha) of 100%, a pest or weed control at 20 g/ha (VIOTR [21]; 20 g/ha) of 100% and a pest or weed control at 5 g/ha (DIGSA [22]; 5 g/ha) of 100%. The pest or weed control at 20 g/ha (DIGSA [22]; 20 g/ha) was 100%.
